This assay has as its system T1, XylR.
T1 construct: without predicted 21-residue signal peptide; His6 (C-terminal as printed), pET28a(+), E. coli BL21(DE3); 75 kDa on SDS-PAGE; motifs 159WDVVNEA163, 280TELD283, 624GLSMG628
The experiment in a line: spectrophotometric p-nitrophenol release at […] nm, Michaelis-Menten fit. In kind it is biochemical, uncultured bacterium (Nelore cattle rumen metagenome). Particulars: 0.1 M sodium acetate pH 6.5, 37 °C; substrate 0.75 to 5 mM; esterase activity.

As for `CC(=O)Oc1ccc([N+](=O)[O-])cc1` [C2, p-nitrofenyl acetate], the Km came to 2300 ± 400 µM.

These data come from paper PMC8128909, “Characterization of a new bifunctional endo-1,4-β-xylanase/esterase found in the rumen metagenome” (Scientific Reports, 2021).
